Experimental data reported in ChEMBL document CHEMBL2073820, “Rifamycin SV and rifampicin exhibit differential inhibition of the hepatic rat organic anion transporting polypeptides, Oatp1 and Oatp2” (Hepatology, 2000).

Experiments:
[1] = biological target: T1, Solute carrier organic anion transporter family member 1A4 (Rattus norvegicus, UniProt O35913); assay: (§1) TP_TRANSPORTER: inhibition of E217betaG uptake in Xenopus laevis oocytes; assay type: functional, cell-based, Oocyte
T1 sequence (O35913 whole entry): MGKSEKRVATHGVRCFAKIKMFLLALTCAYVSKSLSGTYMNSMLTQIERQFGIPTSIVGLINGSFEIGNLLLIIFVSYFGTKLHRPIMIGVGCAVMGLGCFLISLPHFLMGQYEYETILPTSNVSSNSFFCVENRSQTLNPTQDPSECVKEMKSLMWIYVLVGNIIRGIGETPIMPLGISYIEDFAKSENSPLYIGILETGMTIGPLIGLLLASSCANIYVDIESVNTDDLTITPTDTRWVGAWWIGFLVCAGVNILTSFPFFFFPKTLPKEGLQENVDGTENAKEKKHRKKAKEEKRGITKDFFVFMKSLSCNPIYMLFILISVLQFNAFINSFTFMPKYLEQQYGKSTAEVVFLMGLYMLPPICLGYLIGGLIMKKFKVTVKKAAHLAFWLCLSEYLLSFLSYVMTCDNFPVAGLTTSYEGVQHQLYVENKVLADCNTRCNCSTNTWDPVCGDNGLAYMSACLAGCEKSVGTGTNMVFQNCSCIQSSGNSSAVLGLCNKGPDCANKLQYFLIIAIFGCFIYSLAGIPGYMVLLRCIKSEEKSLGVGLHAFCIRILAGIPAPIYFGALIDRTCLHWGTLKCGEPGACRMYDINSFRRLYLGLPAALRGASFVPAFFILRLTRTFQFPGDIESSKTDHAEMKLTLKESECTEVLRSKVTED

[2] = biological target: T2, Solute carrier organic anion transporter family member 1A1 (Rattus norvegicus, UniProt P46720); assay: as §1; assay type: functional, cell-based, Oocyte
T2 sequence (P46720 whole entry): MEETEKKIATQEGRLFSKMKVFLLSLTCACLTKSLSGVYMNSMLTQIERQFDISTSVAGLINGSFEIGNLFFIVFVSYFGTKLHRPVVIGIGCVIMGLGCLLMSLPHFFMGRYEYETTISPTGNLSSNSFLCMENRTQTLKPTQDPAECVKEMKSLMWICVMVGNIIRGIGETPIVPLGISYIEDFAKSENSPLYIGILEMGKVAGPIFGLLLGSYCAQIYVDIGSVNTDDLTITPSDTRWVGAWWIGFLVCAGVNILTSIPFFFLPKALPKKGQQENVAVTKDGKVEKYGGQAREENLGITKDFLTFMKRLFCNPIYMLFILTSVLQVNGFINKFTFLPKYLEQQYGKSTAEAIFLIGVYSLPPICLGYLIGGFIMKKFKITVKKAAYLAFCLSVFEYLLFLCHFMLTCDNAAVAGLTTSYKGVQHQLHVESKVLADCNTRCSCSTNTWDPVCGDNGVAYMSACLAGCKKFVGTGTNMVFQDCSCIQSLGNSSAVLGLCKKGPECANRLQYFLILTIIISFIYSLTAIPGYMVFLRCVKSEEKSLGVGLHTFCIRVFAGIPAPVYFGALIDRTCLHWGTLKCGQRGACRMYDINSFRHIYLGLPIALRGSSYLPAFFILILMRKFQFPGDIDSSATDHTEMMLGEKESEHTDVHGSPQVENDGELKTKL

SMILES | Ki [1] | Ki [2]
CO[C@H]1/C=C/O[C@@]2(C)Oc3c(C)c(O)c4c(O)c(c(/C=N/N5CCN(C)CC5)c(O)c4c3C2=O)NC(=O)/C(C)=C\C=C\[C@H](C)[C@H](O)[C@@H](C)[C@@H](O)[C@@H](C)[C@H](OC(C)=O)[C@@H]1C [RIFAMPIN] | 1.4 µM | –
CO[C@H]1/C=C/O[C@@]2(C)Oc3c(C)c(O)c4c(O)c(cc(O)c4c3C2=O)NC(=O)/C(C)=C\C=C\[C@H](C)[C@H](O)[C@@H](C)[C@@H](O)[C@@H](C)[C@H](OC(C)=O)[C@@H]1C [RIFAMYCIN] | 7.3 µM | 6.6 µM
